This assay has as its target T1, Escherichia coli ferric enterobactin receptor, FepA (FepAE280C) (Escherichia coli, UniProt P05825, E302C).
T1 construct: expressed in transfected cells; host or cells: E. coli KDF541 (fepA, tonB+) carrying pFepAE280C; also KDF570 (fepA, tonB)
It counts as cell-based. On the procedure: Indicated at (A) are ESR analyses of MTSL-labeled bacteria expressing FepAE280C, KDF541(9) containing pITS449 of pFepAE280C was grown in LB medium and subcultured into T medium plus appropriate nutritional supplements at 1%. After 16 hours, bacteria were harvested and suspended in labeling buffer [50 mM Mops and 60 mM NaCl (PH7.5)]. Spin labels were added (to a final concentration of 20 μM MTSL or 10 μM MAL6) and incubated 2 hours at room temperature with shaking, and the cells were washed twice with reaction buffer containing 0.05% Tween-20 and once with reaction buffer alone. […] For ESR analysis, 10^10 cells were suspended in 100 μl of 0.01 M NaHPO4 (pH 6.9) containing 0.4% glucose. X-band spectra of MTSL-labeled KDF541/pFepAE280C (top), KDF541/pITS449 (fepA^+; center), or KDF541 (fepA; bottom) were recorded on a Bruker EMX spectrometer, operating at 9.8 GHz with a total scan range of 150 G and 100-kHz modulation frequency, at 4° C. in a quartz flat cell. Peaks a and b show the position of strongly and weakly immobilized spin labels, respectively. Indicated at (B) are [^125I]-labeled protein A Western blots with anti-MAL6 sera. MAL6 was coupled to bovine serum albumin (BSA) and ovalbumin (OVA). New Zealand White rabbits were immunized with BSA-MAL6 conjugates [100 μg/week for 1 month (29)], and polyclonal serum was collected in week 5 and assayed for antigen specificity by enzyme-linked immunosorbent assay (30) and Western blots against BSA, BSA-MAL6, OVA, and OVA-MAL6 (lanes 1 through 4, respectively). Lysates (5×10^7 cells) of KDF541, KDF541/pITS449, and KDF541/pFepAE280C, previously labeled with MAL6, as described above, were reacted with the anti-MAL6 polyclonal serum (lanes 5 through 7, respectively). Arrows indicate the positions of (top to bottom) FepAE280C-MAL6, BSA-MAL6, BSA, and OVA-MAL6.
KDF541/pFepAE280C was grown, spin-labeled, and prepared as described in FIG. 1. Signal-averaged X-band spectra (six field sweeps collected over an 8-minute period) of spin-labeled bacteria were recorded at 4° C. as indicated at (A) and again after warming the flat cell to 37° C. [indicated at (B) (31)]. A fresh aliquot of cells from the same labeling reaction was suspended in saturating ferric enterobactin (300 μM) at 4° C. as indicated at (C), the sample was warned to 37° C., and spectra were recorded after 5 minutes, as indicated at (D), and 15 minutes, as indicated at (E) (midpoints of the signal-average measurements). The bacteria were then cooled again to 4° C. for 30 minutes, and spectra were recorded, as indicated at (F). Each of the spectra was double-integrated, as indicated at (G), from 3405 to 3555 G to determine the total number of MTSL spins (O) and from 3443 to 3477 G to determine the spins derived from the strongly immobilized (a) and weakly immobilized (b) peaks (●).
KDF541/pFepAE280C was grown, spin-labeled, and prepared as described in FIG. 1. Singla-averaged X-band spectra (six field sweeps collected over an 8-minute period) of spin-labeled bacteria were recorded in the presence of saturating levels of colicin B (10 μM) at 4° C., as indicated at (A). The sample was warmed to 37° C. and analyzed after 5 minutes, as indicated at (B), 15 minutes, as indicated at (C), and 75 minutes, as indicated at (D) (midpoints of signal average measurement before recooling to 4° C., as indicated at (E). The same strain was grown in minimal media and starved for glucose for 2 hours to deplete its energy stores, spin-labeled, and exposed to colicin B (10 μM) at 37° C. for 30 minutes, as indicated at (F). The spectra were double-integrated, as indicated at (G), as described in FIG. 2.
KDF541/pFepAE280C was grown, spin-labeled, and prepared as described in FIG. 1.

[1] abbreviates: ferric enterobactin in excess, 37° C.

T1 sequence (P05825 23-746 E302C): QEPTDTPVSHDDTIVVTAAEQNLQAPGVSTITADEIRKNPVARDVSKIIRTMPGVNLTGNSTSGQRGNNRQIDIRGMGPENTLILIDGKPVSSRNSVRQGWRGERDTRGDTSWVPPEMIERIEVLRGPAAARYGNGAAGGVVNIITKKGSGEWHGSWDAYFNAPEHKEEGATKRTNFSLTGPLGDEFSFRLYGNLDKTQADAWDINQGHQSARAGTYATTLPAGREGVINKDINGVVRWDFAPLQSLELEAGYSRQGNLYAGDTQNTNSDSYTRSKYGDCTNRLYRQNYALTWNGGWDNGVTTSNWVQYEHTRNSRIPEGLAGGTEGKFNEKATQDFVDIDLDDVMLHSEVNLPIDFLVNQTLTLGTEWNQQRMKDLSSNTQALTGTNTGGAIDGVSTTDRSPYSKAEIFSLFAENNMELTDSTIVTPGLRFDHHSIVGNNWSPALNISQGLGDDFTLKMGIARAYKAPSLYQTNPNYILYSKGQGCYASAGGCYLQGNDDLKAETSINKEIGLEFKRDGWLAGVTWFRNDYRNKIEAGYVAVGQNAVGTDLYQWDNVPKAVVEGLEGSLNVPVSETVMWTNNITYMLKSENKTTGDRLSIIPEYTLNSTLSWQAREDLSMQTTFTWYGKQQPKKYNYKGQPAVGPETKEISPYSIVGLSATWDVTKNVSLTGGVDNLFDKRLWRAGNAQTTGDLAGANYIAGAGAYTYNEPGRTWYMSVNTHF

In the case of `O=C(N[C@H]1COC(=O)[C@@H](NC(=O)c2cccc([O-])c2[O-])COC(=O)[C@@H](NC(=O)c2cccc([O-])c2[O-])COC1=O)c1cccc([O-])c1[O-].[Fe+3]` [ferric enterobactin], the “period over which the burst of spin-label motion peaked and receded” value (ferric enterobactin 300 μM, 37° C., continuous monitoring at 3472 G) is listed as 5 min. The “effect on MTSL mobility (weakly immobilized peak at 3472 G) monitored over time” value (ferric enterobactin 300 μM, KDF541/pFepAE280C, glucose present, warmed from 4° C. to 37° C.) is listed as “stimulated a burst of motion”. For the same compound, under setting [1], the “time for first surge in motion to decay” value was 140 s and the “time for first surge in motion to peak” value is 140 s.

In the case of colicin B, under “cells with bound colicin warmed to 37° C.”, the “time over which immobilization of MTSL at residue 280 became more severe” value was 30 min. Also, where the note is “colicin bound, 4° C., over the course of 1 hour”, the “effect on MTSL mobility during continual incubation at 4° C.” value was “did not take place”. The “effect on MTSL mobility in signal-averaged X-band spectra” value (saturating colicin B (10 μM), 37° C.) is reported as “progressively eliminated weakly immobilized spins”.
